Reference: EPA's ToxRefDB 2

Tests used:
rat [1] = details: Subchronic oral toxicity in rodents, other, Feed, dose end: 90 day, group: systemic
mouse [2] = details: Subchronic oral toxicity in rodents, other, Feed, dose end: 90 day, group: systemic
rabbit [3] = details: Prenatal developmental toxicity study, Russian (Chbb:HM, SPF), Oral, Gavage/Intubation, dose end: 19 GD
dog [4] = details: Subchronic oral toxicity in nonrodent, beagle, Feed, dose end: 3 month, group: systemic, systemic / in life observation / body weight / body weight gain + systemic / in life observation / food consumption / food consumption
rat [5] = details: Prenatal developmental toxicity study, wistar, Oral, [Not Specified], dose end: 20 GD
rat [6] = details: Multigenerational reproductive toxicity study, other, Oral, Feed, dose end: 2 generation
dog [7] = details: Chronic toxicity; beagle; Oral; Feed; dose end: 12 month; group: systemic; systemic / in life observation / body weight / body weight gain + systemic / in life observation / food consumption / food consumption + …
rat [8] = details: Subchronic oral toxicity in rodents, wistar, Feed, dose end: 90 day, group: systemic
rat [9] = details: Combined chronic toxicity/carcinogenicity, other, Oral, Feed, dose end: 24 month, group: systemic
mouse [10] = details: Carcinogenicity, other, Oral, Feed, dose end: 18 month, group: systemic
rat [11] = details: Prenatal developmental toxicity study, other, Oral, Gavage/Intubation, dose end: 15 GD
rat [12] = details: Developmental neurotoxicity study, other, Oral, Gavage/Intubation, dose end: 140 PND, group: cannot be grouped
rat [13] = details: Prenatal developmental toxicity study, sprague dawley, Oral, Gavage/Intubation, dose end: 17 GD
rabbit [14] = details: Prenatal developmental toxicity study, new zealand white, Oral, Gavage/Intubation, dose end: 19 GD
[15] = systemic / clinical chemistry / cholesterol / cholesterol + systemic / clinical chemistry / lipids / phospholipids
[16] = systemic / pathology microscopic / liver / necrosis
[17] = systemic / pathology microscopic / liver / necrosis + systemic / hematology / leukocyte (wbc) count differential / leukocyte (wbc) + …
[18] = group: developmental, developmental / developmental malformation / bone / full supernumerary
[19] = group: maternal, systemic / in life observation / body weight / body weight gain
[20] = group: developmental, developmental / developmental malformation / bone / unossified
[21] = group: developmental, developmental / developmental malformation / bone / unossified + developmental / developmental malformation / bone / incomplete ossification…
[22] = group: maternal, systemic / in life observation / clinical signs / piloerection + systemic / in life observation / clinical signs / salivation + systemic / …
[23] = group: offspring, systemic / in life observation / body weight / offspring (pup) weight
[24] = group: parental, systemic / organ weight / kidney / relative to body weight
[25] = systemic / clinical chemistry / calcium / calcium
[26] = systemic / in life observation / body weight / body weight + systemic / in life observation / body weight / body weight gain + systemic / …
[27] = systemic / pathology microscopic / liver / dilatation + systemic / clinical chemistry / urea nitrogen / urea + systemic / in life …
[28] = systemic / pathology microscopic / pancreas / hyperplasia
[29] = systemic / pathology microscopic / pancreas / hyperplasia + systemic / in life observation / body weight / body weight + systemic / in life …
[30] = group: developmental, developmental / developmental malformation / bone / incomplete ossification + developmental / developmental malformation / bone / unossified…
[31] = group: maternal, systemic / in life observation / body weight / body weight + systemic / in life observation / body weight / body weight gain + systemic / in…
[32] = reproductive / offspring survival early / birth index / birth index + reproductive / reproductive performance / gestational length / …
[33] = systemic / in life observation / body weight / offspring (pup) weight + systemic / organ weight / thymus / relative to body weight
[34] = group: developmental, developmental / developmental malformation / bone / wavy + developmental / developmental malformation / kidney / [other] + developmental / …
[35] = group: maternal, reproductive / reproductive performance / resorptions / resorptions + systemic / in life observation / body weight / body weight gain + …
[36] = group: maternal, systemic / in life observation / body weight / body weight gain + systemic / in life observation / food consumption / food consumption
[37] = group: developmental, developmental / developmental malformation / heart / atrial septum defect

Cc1cc(C2CC2)nc(Nc2ccccc2)n1 [Cyprodinil] gave an LEL (rat [1]; [15]) of 3.24 mg/kg/day, an NEL (rat [1]; [15]) of under 3.24 mg/kg/day and an LOAEL (rat [1]; systemic / pathology microscopic / kidney / lesion(s) (nos)) of 18.9 mg/kg/day. It also gave an NOAEL (rat [1]; systemic / pathology microscopic / kidney / lesion(s) (nos) + systemic / clinical chemistry / albumin / albumin + systemic / clinical …) of 3.14 mg/kg/day, an LEL (mouse [2]; [16]) of 257 mg/kg/day and an LOAEL (mouse [2]; [16]) of 257 mg/kg/day. It also gave an NEL (mouse [2]; [17]) of 73.3 mg/kg/day, an NOAEL (mouse [2]; [17]) of 73.3 mg/kg/day and an LEL (rabbit [3]; [18]) of 400 mg/kg/day. The LOAEL (rabbit [3]; [18]) was 400 mg/kg/day, the NEL (rabbit [3]; [18]) was 150 mg/kg/day and the NOAEL (rabbit [3]; [18]) was 150 mg/kg/day. For the same molecule, the LEL (rabbit [3]; [19]) was 400 mg/kg/day, the LOAEL (rabbit [3]; [19]) was 400 mg/kg/day and the NEL (rabbit [3]; [19]) was 150 mg/kg/day. It also gave an NOAEL (rabbit [3]; [19]) of 150 mg/kg/day, an LEL (dog [4]) of 560 mg/kg/day and an LOAEL (dog [4]) of 560 mg/kg/day. The NEL (dog [4]) was 210 mg/kg/day, the NOAEL (dog [4]) was 210 mg/kg/day and the LEL (rat [5]; [20]) was 200 mg/kg/day. For the same molecule, the LOAEL (rat [5]; [20]) was 200 mg/kg/day, the NEL (rat [5]; [21]) was 20 mg/kg/day and the NOAEL (rat [5]; [21]) was 20 mg/kg/day. It also gave an LEL (rat [5]; [22]) of 200 mg/kg/day, an LOAEL (rat [5]; [22]) of 200 mg/kg/day and an NEL (rat [5]; [22]) of 20 mg/kg/day. The NOAEL (rat [5]; [22]) was 20 mg/kg/day, the LEL (rat [6]; [23]) was 332 mg/kg/day and the LOAEL (rat [6]; [23]) was 332 mg/kg/day. For the same molecule, the NEL (rat [6]; [23]) was 77.2 mg/kg/day, the NOAEL (rat [6]; [23]) was 77.2 mg/kg/day and the LOAEL (rat [6]; group: parental, systemic / in life observation / body weight / body weight) was 326 mg/kg/day. For the same molecule, the NOAEL (rat [6]; group: parental, systemic / in life observation / body weight / body weight + systemic / organ weight / heart / relative to body weight + systemic / organ …) was 81.3 mg/kg/day, the LEL (rat [6]; [24]) was 0.7 mg/kg/day and the NEL (rat [6]; [24]) was under 0.7 mg/kg/day. For the same molecule, the LEL (dog [7]) was 446 mg/kg/day, the LOAEL (dog [7]) was 446 mg/kg/day and the NEL (dog [7]) was 68 mg/kg/day. For the same molecule, the NOAEL (dog [7]) was 68 mg/kg/day, the LEL (rat [8]; [25]) was 3.52 mg/kg/day and the NEL (rat [8]; [25]) was under 3.52 mg/kg/day. For the same molecule, the LOAEL (rat [8]; [26]) was 131 mg/kg/day, the NOAEL (rat [8]; [26]) was 17.8 mg/kg/day and the LOAEL (rat [9]; systemic / pathology microscopic / liver / dilatation) was 35.6 mg/kg/day. The LEL (rat [9]; systemic / pathology microscopic / liver / dilatation + systemic / clinical chemistry / urea nitrogen / urea) was 35.6 mg/kg/day, the NEL (rat [9]; [27]) was 2.7 mg/kg/day and the NOAEL (rat [9]; [27]) was 2.7 mg/kg/day. The LEL (mouse [10]; [28]) was 212 mg/kg/day, the LOAEL (mouse [10]; [28]) was 212 mg/kg/day and the NEL (mouse [10]; [29]) was 16.1 mg/kg/day. For the same molecule, the NOAEL (mouse [10]; [29]) was 16.1 mg/kg/day, the LEL (rat [11]; [30]) was 1000 mg/kg/day and the LOAEL (rat [11]; [30]) was 1000 mg/kg/day. It also gave an NEL (rat [11]; [30]) of 200 mg/kg/day, an NOAEL (rat [11]; [30]) of 200 mg/kg/day and an LEL (rat [11]; [31]) of 1000 mg/kg/day. The LOAEL (rat [11]; [31]) was 1000 mg/kg/day, the NEL (rat [11]; [31]) was 200 mg/kg/day and the NOAEL (rat [11]; [31]) was 200 mg/kg/day.
Cl.O=C(c1ccc(OCCN2CCCCC2)cc1)c1c(-c2ccc(O)cc2)sc2cc(O)ccc12 [Raloxifene hydrochloride] was tested, and the LOAEL (rat [12]; [32]) was over 10 mg/kg/day, the NOAEL (rat [12]; [32]) was at least 10 mg/kg/day and the LEL (rat [12]; [33]) was 0.1 mg/kg/day. For the same molecule, the NEL (rat [12]; [33]) was under 0.1 mg/kg/day, the LEL (rat [13]; group: developmental, developmental / developmental malformation / bone / wavy + developmental / developmental malformation / kidney / [other]) was 1 mg/kg/day and the LOAEL (rat [13]; [34]) was over 10 mg/kg/day. It also gave an NEL (rat [13]; [34]) of 0.1 mg/kg/day, an NOAEL (rat [13]; [34]) of at least 10 mg/kg/day and an LOAEL (rat [13]; [35]) of over 10 mg/kg/day. For the same molecule, the NOAEL (rat [13]; [35]) was at least 10 mg/kg/day, the LEL (rat [13]; [36]) was 0.1 mg/kg/day and the NEL (rat [13]; [36]) was under 0.1 mg/kg/day. It also gave an LEL (rabbit [14]; [37]) of 0.1 mg/kg/day, an LOAEL (rabbit [14]; [37]) of over 10 mg/kg/day and an NEL (rabbit [14]; [37]) of under 0.1 mg/kg/day. The NOAEL (rabbit [14]; [37]) was at least 10 mg/kg/day, the LEL (rabbit [14]; [36]) was 10 mg/kg/day and the LOAEL (rabbit [14]; [36]) was over 10 mg/kg/day. The NEL (rabbit [14]; [36]) was 1 mg/kg/day and the NOAEL (rabbit [14]; [36]) was at least 10 mg/kg/day.
